Experimental data reported in publication PMC11311842, “Radiosynthesis and Preclinical Evaluation of ^18F-Labeled Estradiol Derivatives with Different Lipophilicity for PET Imaging of Breast Cancer” (Cancers, 2024).
Read-outs that look alike come from different tables or passages of the source. Each block holds one molecule with its values, some of them ahead of it.

Columns and labels:
[1] = system: MCF-7 (ER+) breast cancer cells; experiment: Competitive cellular uptake with ^18F-TA-Glyco-EE as radioligand; assay type: cell-based; settings: Homo sapiens, MCF7, 1 h, read-out: IC50 for inhibition of cellular uptake of ^18F-TA-Glyco-EE
Description: Competitive uptake experiments were performed using ^18F-TA-Glyco-EE as a radioligand. One day prior to the experiment, MCF-7 cells were seeded in 96-well plates (50,000 cells/well). The cell medium was removed, and the respective estradiol derivative, as a competitor of the radioligand, was added in concentrations from 0 to 500 µM in 90 µL cell culture medium each. After ^18F-TA Glyco-EE (10 µL, approx. 1 MBq/well) was added, the incubation proceeded for 60 min at 37 °C. The plate was set on ice and washed with ice-cold PBS, followed by cell lysis and detachment with NaOH (0.1 M, 200 µL, 37 °C). The cells were transferred into counting tubes, and the radioactivity was measured using a γ-counter (Wallac Wizard, PerkinElmer, Waltham, MA, USA). One single experiment was performed in triplicate.

[2] = cited from earlier work
MCF-7 and T47D tumors = settings: cited from earlier work
[3] = system: MCF-7 tumor-bearing nude mice; design: method as in PMID 29466767; settings: 60 min p.i., cited from earlier work
[4] = Determination of logD7.4 (n-octanol/PBS); assay type: physicochemical; settings: n-octanol/PBS pH 7.4; mean ± SD, three independent experiments
Description: For the determination of the octanol–water coefficient, an aliquot of the radiotracer was added to PBS (500 µL, pH 7.4) and n-octanol (500 µL) in an Eppendorf tube. The mixture was vortexed and subsequently centrifuged, each for 1 min. Three samples (each 100 µL) were taken from both the PBS and the n-octanol layer and measured using a γ-counter (Wallac Wizard, PerkinElmer, Waltham, MA, USA). The logD7.4 was expressed as log(cpmoctanol/cpmPBS) and reported as mean ± SD. The determination of logD7.4 was performed in three independent experiments, each performed in triplicate.

[5] = Stability in human serum and plasma in vitro (radio-HPLC); assay type: in vitro ADME; settings: 37 °C; for Stability in human serum and plasma (in words): over 120 min, radio-HPLC; for Stability in Human Serum or Plasma: over 2 h, same for serum and plasma
Description: An aliquot of the formulated tracer solution (40 µL containing approx. 10 MBq in 0.9% NaCl) was incubated with 200 µL of human plasma (Hölzel Diagnostika Handels GmbH, from CosmoBio USA, Carlsbad, CA, USA) or human serum (Biochrom GmbH, Merck KGaA, Darmstadt, Germany), respectively, at 37 °C. After various time points (5–120 min), aliquots (30 µL) were taken and quenched in methanol or 10% TFA (30 µL). The samples were centrifuged for 3 min, and subsequently the supernatants were analyzed by radio-HPLC (Chromolith RP-18e, 100 × 4.6 mm, 10–100% acetonitrile (with 0.1% TFA) in water (with 0.1% TFA) over 5 min, 4 mL/min).

ER+ MCF-7 cells = experiment: Cellular uptake assay in ER+ cells; assay type: cell-based, human
Description: One day prior to the experiment, MCF-7 and MDA-MB-231 cells were seeded in 24-well plates (350,000 cells/well). The cells were washed once with cell medium. The cells were incubated with the respective radiotracer in cell medium (510 µL) for 10, 20, 30, 60, 90, 120 min at 37 °C in the absence and presence of estradiol (E2, final concentration of 72 µM). After incubation, the plates were set on ice and washed with ice-cold PBS twice, following cell lysis and detachment with NaOH (0.1 M, 750 µL, 37 °C). The cells were transferred to counting tubes, and the radioactivity was measured using a γ-counter (Wallac Wizard, PerkinElmer, Waltham, MA, USA). The protein concentration of each well was determined in duplicate using Bradford reagent (Bio-Rad Laboratories GmbH, Feldkirchen, Germany). The cellular uptake assay was performed in 2–4 independent experiments, each performed in quadruplicate for each time point.

[6] = Plasma protein binding (MicroSpin G-50 columns); assay type: in vitro ADME; settings: human plasma, 10 min, 37 °C
Description: MicroSPin G-50 columns (Cytiva, Merck KGaA, Darmstadt, Germany) were preconditioned according to the manufacturer’s protocol and the experiment was performed as follows. In brief, an aliquot of the tracer (1 µL, approx. 250 kBq) was added to NaCl (0.9%, 200 µL, negative control) or human plasma (200 µL) and incubated for 10 min at 37 °C. A sample from the plasma or negative control (40 µL) was carefully added to the resin, and the column was placed in an Eppendorf tube. After centrifugation (2 min, 2000× g), the eluate and the resin were collected separately. Both were measured for radioactivity using a γ-counter (Wallac Wizard, PerkinElmer, Waltham, MA, USA), and the radioactivity eluted from the resin was calculated as a percentage of the total amount of radioactivity. The determination of plasma protein binding was performed twice in duplicate.

[7] = Hydrolysis of the Si-^18F bond observed on formulation; assay type: physicochemical; settings: slightly acidic conditions (HBSS pH 6.4)
Description: Aiming at a more lipophilic derivatization of EE for comparison to the above-described hydrophilic derivatization, the well-known isotopic ^19F-^18F exchange reaction according to Schirrmacher et al. was applied to the radiosynthesis of ^18F-SiFA-EE, starting from ^19F-SiFA-EE. After cartridge purification and reformulation in HBSS (pH 6.4), ^18F-SiFA-EE was obtained in an AY of 44% (referred to [^18F]fluoride) after a total synthesis time of 27 min, with an Am of up to 28 GBq/µmol. It should be noted here that the obtained Am of ^18F-SiFA-EE was strongly dependent on the starting activity.

- IC50 ([1]; MCF-7 cells, 60 min, 37 °C, single experiment in triplicate): 56 µM
SMILES: C[C@]12CC[C@@H]3c4ccc(O)cc4CC[C@H]3[C@@H]1CC[C@@H]2O [E2, 17β-estradiol, reference compound]

SMILES: C#C[C@]1(O)CC[C@H]2[C@@H]3CCc4cc(O)ccc4[C@H]3CC[C@@]21C [EE, 17α-ethinylestradiol]
- calculated logKow [2]: 3.7

SMILES: CC12CCC3c4ccc(O)cc4CCC3C1CC([18F])C2O (stereo not drawn) [FES, 16α-[^18F]fluoroestradiol]
- logD7.4 [2]: 2.5
- Uptake in MCF-7 and T47D tumors (MCF-7 and T47D tumors): < 0.4 %ID/g

SMILES: C[C@]12CC[C@@H]3c4ccc(O)cc4CC[C@H]3[C@@H]1CC[C@@]2(O)c1cn(CCOCCOCCOCCF)nn1 [PEG-EE]
- IC50 [1]: 1270 µM

SMILES: CC(=O)OC1C(CF)OC(n2cc(C3(O)CCC4C5CCc6cc(O)ccc6C5CCC43C)nn2)C(OC(C)=O)C1OC(C)=O (stereo not shown) [TA-Glyco-EE]
- IC50 [1]: 194 µM

SMILES: CC12CCC3c4ccc(O)cc4CCC3C1CCC2(O)c1cn(CCOCCOCC[18F])nn1 (stereo not shown) [^18F-FETE]
- Tumor uptake ([3]; MCF-7 tumor-bearing nude mice): 4 %ID/g
- Tumor uptake after fulvestrant pretreatment ([3]; MCF-7 xenografts): 1.5 %ID/g

- logD7.4 [4]: 1.7 ± 0.1
- Stability in Human Serum or Plasma [5]: >99% over 2 h ^2
SMILES: CC12CCC3c4ccc(O)cc4CCC3C1CCC2(O)c1cn(C2OC(C[18F])C(O)C(O)C2O)nn1 (stereo not shown) [^18F-Glyco-EE]
- Stability in human serum and plasma (in words) [5]: stable in both plasma and serum over 120 min
- Total cellular uptake in MCF-7 cells (ER+ MCF-7 cells; after 90 min, 37 °C, absence of E2): 7 %/mg

- logD7.4 [4]: 2.2 ± 0.1
- Stability in Human Serum or Plasma [5]: >99% over 2 h ^2
- Plasma Protein Binding [6]: 71 ± 4%
SMILES: CC12CCC3c4ccc(O)cc4CCC3C1CCC2(O)c1cn(CCOCCOCCOCC[18F])nn1 (stereo not shown) [^18F-PEG-EE]
- Stability in human serum and plasma (in words) [5]: stable in both plasma and serum over 120 min
- Cellular uptake relative to ^18F-Glyco-EE (ER+ MCF-7 cells; ER+ MCF-7 cells): four times higher
- Cellular uptake in MCF-7 cells (ER+ MCF-7 cells; after 60 min, 37 °C, absence of E2): 27 %/mg

SMILES: CC12CCC3c4ccc(O)cc4CCC3C1CCC2(O)c1cn(Cc2ccc([Si]([18F])(C(C)(C)C)C(C)(C)C)cc2)nn1 (stereo not shown) [^18F-SiFA-EE]
- Hydrolytic stability of the Si-^18F bond [7]: highly amenable to hydrolysis of the Si-^18F bond
